Measurements from PubChem BioAssay AID330 (DTP/NCI, 2004).
“And” between values parts separate entries of the source, which are not always exact repeats. Equal values may be shown once. Inconclusive results and toxic doses are left out.

Tested on: P388 leukemia ip, CD2F1 mice, survival T/C
Assay: NCI In Vivo Anticancer Drug Screen. Data for tumor model P388 Leukemia (intraperitoneal) in CD2F1 (CDF1) mice
Conditions: endpoint: median survival time, higher = longer survival
Outline: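 Mice carrying the transplanted tumor received test compound or vehicle. Survival was recorded in each group, and the value is the treated-group measurement divided by that of the vehicle-treated control group.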

[1] = dose: 50.0 mg/kg/injection, schedule: Q01DX009 (ip), vehicle: saline with Tween-80
[2] = dose: 100.0 mg/kg/injection, schedule: Q01DX009 (ip), vehicle: saline with Tween-80
[3] = dose: 200.0 mg/kg/injection, schedule: Q01DX009 (ip), vehicle: saline with Tween-80
[4] = dose: 50.0 mg/kg/injection, schedule: Q01DX005 (ip), vehicle: saline with Tween-80
[5] = dose: 100.0 mg/kg/injection, schedule: Q01DX005 (ip), vehicle: saline with Tween-80
[6] = dose: 200.0 mg/kg/injection, schedule: Q01DX005 (ip), vehicle: saline with Tween-80
[7] = dose: 60.0 mg/kg/injection, schedule: Q01DX005 (ip), vehicle: saline with Tween-80
[8] = dose: 120.0 mg/kg/injection, schedule: Q01DX005 (ip), vehicle: saline with Tween-80
[9] = dose: 240.0 mg/kg/injection, schedule: Q01DX005 (ip), vehicle: saline with Tween-80

With `CCOC(OCC)C(=O)OCC(=O)[C@]1(O)Cc2c(O)c3c(c(O)c2[C@@H](OC2CC(N)C(O)C(C)O2)C1)C(=O)c1c(OC)cccc1C3=O` (stereo partly specified) the T/C (dose: 0.13 mg/kg/injection, schedule: Q03HX008 (ip), vehicle: saline) was 111 % of control, the T/C (dose: 0.25 mg/kg/injection, schedule: Q03HX008 (ip), vehicle: saline) was 117 % of control and the T/C (dose: 0.5 mg/kg/injection, schedule: Q01DX009 (ip), vehicle: saline) was 160 % of control. The T/C (dose: 1.0 mg/kg/injection, schedule: Q01DX001 (ip), vehicle: saline) was 118 % of control, the T/C (dose: 1.0 mg/kg/injection, schedule: Q01DX009 (ip), vehicle: saline) was 173 % of control and the T/C (dose: 2.0 mg/kg/injection, schedule: Q01DX001 (ip), vehicle: saline) was 123 % of control. For the same compound, the T/C (dose: 2.0 mg/kg/injection, schedule: Q01DX009 (ip), vehicle: saline) was 245 % of control, the T/C (dose: 4.0 mg/kg/injection, schedule: Q01DX009 (ip), vehicle: saline) was 198 % of control and the T/C (dose: 4.0 mg/kg/injection, schedule: Q03HX008 (ip), vehicle: saline) was 168 % of control. For the same compound, the T/C (dose: 8.0 mg/kg/injection, schedule: Q03HX008 (ip), vehicle: saline) was 88 % of control, the T/C (dose: 16.0 mg/kg/injection, schedule: Q01DX001 (ip), vehicle: saline) was 170 % of control and the T/C (dose: 32.0 mg/kg/injection, schedule: Q01DX001 (ip), vehicle: saline) was 189 % of control. For the same compound, the T/C (dose: 64.0 mg/kg/injection, schedule: Q01DX001 (ip), vehicle: saline) was 87 % of control.
With `CCN(CC)[P+](c1ccccc1O)(N(CC)CC)N(CC)CC` the T/C (dose: 1.56 mg/kg/injection, schedule: Q01DX009 (ip), vehicle: saline) was 100 % of control and the T/C (dose: 3.12 mg/kg/injection, schedule: Q01DX009 (ip), vehicle: saline) was 101 % of control.
In the case of `C[As](C)SCCC(N)C(=O)NC(CCS[As](C)C)C(=O)O` (stereo unspecified), the T/C (dose: 12.5 mg/kg/injection, schedule: Q01DX009 (ip), vehicle: Klucel (hydroxypropylcellulose) (HPC)) is reported as 110 % of control.
`COc1cc2c(cc1O)C(O)CCCC2` (stereo unspecified) was tested, and the T/C [1] was 107 % of control, the T/C [2] was 108 % of control and the T/C [3] was 110 % of control.
`CCOC(=O)C1(C(O)(C2CC2)C2(C(=O)OCC)CC2)CC1` was tested, and the T/C [4] was 100 % of control, the T/C [5] was 102 % of control and the T/C [6] was 100 % of control.
With `O=C1CNC(=O)C12C(=O)CNC2=O` the T/C (dose: 100.0 mg/kg/injection, schedule: Q04DX002 (ip), vehicle: saline with Tween-80) was 98 % of control, the T/C (dose: 200.0 mg/kg/injection, schedule: Q04DX002 (ip), vehicle: saline with Tween-80) was 96 % of control and the T/C (dose: 400.0 mg/kg/injection, schedule: Q04DX002 (ip), vehicle: saline with Tween-80) was 98 % of control.
In the case of `CC(=N/NC(=S)NCC(C)C)/C(C)=N\Nc1ccc(Cl)cc1`, the T/C (dose: 50.0 mg/kg/injection, schedule: Q01DX009 (ip), vehicle: saline) is reported as 97 % of control, the T/C (dose: 100.0 mg/kg/injection, schedule: Q01DX009 (ip), vehicle: saline) is reported as 106 % of control and the T/C (dose: 200.0 mg/kg/injection, schedule: Q01DX009 (ip), vehicle: saline) is reported as 99 % of control.
`c1ccc2c(c1)[nH]c1nc3ccncc3nc12` was tested, and the T/C [1] was 90 % of control and the T/C [2] was 90 % of control.
In the case of `O=C1CCCC2C3CCC[N+]4([O-])CCCC(O)(CN12)C34` (stereo unspecified), the T/C (dose: 6.2 mg/kg/injection, schedule: Q01DX007 (ip), vehicle: carboxymethylcellulose (CMC)) is reported as 100 % of control, the T/C (dose: 12.5 mg/kg/injection, schedule: Q01DX007 (ip), vehicle: carboxymethylcellulose (CMC)) is reported as 91 % of control and the T/C (dose: 25.0 mg/kg/injection, schedule: Q01DX007 (ip), vehicle: carboxymethylcellulose (CMC)) is reported as 91 % of control.
For `Cc1c2cc[n+](C)cc2c(C)c2c1[nH]c1ccccc12`, the T/C (dose: 1.25 mg/kg/injection, schedule: Q04DX002 (ip), vehicle: water) was 103 % of control and 117 % of control, the T/C (dose: 2.5 mg/kg/injection, schedule: Q04DX002 (ip), vehicle: water) was 114 % of control and 121 % of control and the T/C (dose: 12.5 mg/kg/injection, schedule: Q04DX002 (ip), vehicle: distilled water + Tween-80) was 122 % of control.
For `NC(=O)N/N=C1\CSCc2ccccc21`, the T/C (dose: 25.0 mg/kg/injection, schedule: Q01DX009 (ip), vehicle: other) was 93 % of control, the T/C (dose: 50.0 mg/kg/injection, schedule: Q01DX009 (ip), vehicle: other) was 92 % of control and the T/C (dose: 100.0 mg/kg/injection, schedule: Q01DX009 (ip), vehicle: other) was 93 % of control. For the same compound, the T/C (dose: 200.0 mg/kg/injection, schedule: Q01DX009 (ip), vehicle: other) was 99 % of control and the T/C (dose: 400.0 mg/kg/injection, schedule: Q01DX009 (ip), vehicle: other) was 117 % of control.
With `COc1ccc2oc(-c3ccc(Cl)cc3)c(N3CCN(C)CC3)c2c1` the T/C (dose: 60.0 mg/kg/injection, schedule: Q01DX005 (ip), vehicle: saline) was 102 % of control and 93 % of control and 97 % of control, the T/C (dose: 120.0 mg/kg/injection, schedule: Q01DX005 (ip), vehicle: saline) was 102 % of control and 103 % of control and 105 % of control and the T/C (dose: 240.0 mg/kg/injection, schedule: Q01DX005 (ip), vehicle: saline) was 122 % of control and 96 % of control.
With `COc1ccc(-c2nn(-c3ccccc3)cc2Oc2ccccc2O)cc1` the T/C [7] was 104 % of control, the T/C [8] was 102 % of control and the T/C [9] was 96 % of control.
In the case of `Nc1ncnc2c1c(-c1ccccc1)cn2-c1ccc(Cl)cc1`, the T/C [7] is reported as 104 % of control, the T/C [8] is reported as 99 % of control and the T/C [9] is reported as 88 % of control.
In the case of `NC(=O)c1c(-c2ccccc2)nc2sccn12`, the T/C (dose: 100.0 mg/kg/injection, schedule: Q01DX001 (ip), vehicle: Klucel (hydroxypropylcellulose) (HPC)) is reported as 98 % of control, the T/C (dose: 200.0 mg/kg/injection, schedule: Q01DX001 (ip), vehicle: Klucel (hydroxypropylcellulose) (HPC)) is reported as 90 % of control and the T/C (dose: 400.0 mg/kg/injection, schedule: Q01DX001 (ip), vehicle: Klucel (hydroxypropylcellulose) (HPC)) is reported as 92 % of control.
With `COC1(OC)OC(c2ccc([N+](=O)[O-])cc2)=C(c2ccc([N+](=O)[O-])cc2)OC1(OC)OC` the T/C (dose: 60.0 mg/kg/injection, schedule: Q01DX005 (ip), vehicle: Klucel (hydroxypropylcellulose) (HPC)) was 90 % of control and the T/C (dose: 120.0 mg/kg/injection, schedule: Q01DX005 (ip), vehicle: Klucel (hydroxypropylcellulose) (HPC)) was 87 % of control.
`COC1CCC(NC(=O)N(N=O)C2CCC(OC)CC2)CC1` (stereo unspecified) was tested, and the T/C (dose: 25.0 mg/kg/injection, schedule: Q01DX001 (ip), vehicle: distilled water + Tween-80) was 109 % of control, the T/C (dose: 50.0 mg/kg/injection, schedule: Q01DX001 (ip), vehicle: distilled water + Tween-80) was 100 % of control and the T/C (dose: 100.0 mg/kg/injection, schedule: Q01DX001 (ip), vehicle: distilled water + Tween-80) was 100 % of control. The T/C (dose: 200.0 mg/kg/injection, schedule: Q01DX001 (ip), vehicle: distilled water + Tween-80) was 105 % of control.
With `O=[N+]([O-])c1ccc(N/N=C/c2ccnc3ccccc23)cc1` the T/C (dose: 100.0 mg/kg/injection, schedule: Q01DX009 (ip), vehicle: Klucel (hydroxypropylcellulose) (HPC)) was 95 % of control, the T/C (dose: 200.0 mg/kg/injection, schedule: Q01DX009 (ip), vehicle: Klucel (hydroxypropylcellulose) (HPC)) was 86 % of control and the T/C (dose: 400.0 mg/kg/injection, schedule: Q01DX009 (ip), vehicle: Klucel (hydroxypropylcellulose) (HPC)) was 95 % of control.
`COc1ccc2ccc3nonc3c2c1` was tested, and the T/C [4] was 92 % of control, the T/C [5] was 99 % of control and the T/C [6] was 91 % of control.
For `CCOC(=O)c1ccc(NCc2ccc(CNc3ccc(C(=O)OCC)cc3)cc2)cc1`, the T/C (dose: 6.25 mg/kg/injection, schedule: Q01DX009 (ip), vehicle: saline with Tween-80) was 105 % of control, the T/C (dose: 12.5 mg/kg/injection, schedule: Q01DX009 (ip), vehicle: saline with Tween-80) was 103 % of control and the T/C (dose: 25.0 mg/kg/injection, schedule: Q01DX009 (ip), vehicle: saline with Tween-80) was 94 % of control. The T/C [1] was 89 % of control and the T/C [2] was 89 % of control.
In the case of `O=C1CSc2nc3c(Cl)cc(Cl)cc3c(=O)n21`, the T/C [4] is reported as 108 % of control, the T/C [5] is reported as 100 % of control and the T/C [6] is reported as 105 % of control.
In the case of `COC(CNC(=O)Nc1cccnc1)[CH2][Hg][Cl]` (stereo unspecified), the T/C (dose: 25.0 mg/kg/injection, schedule: Q04DX003 (ip), vehicle: saline with Tween-80) is reported as 91 % of control and the T/C (dose: 50.0 mg/kg/injection, schedule: Q04DX003 (ip), vehicle: saline with Tween-80) is reported as 116 % of control.
For `OCCN1CCSC1=S`, the T/C [1] was 95 % of control, the T/C [2] was 90 % of control and the T/C [3] was 100 % of control.
In the case of `Clc1ccc2nc3ccccc3c(SCCCCCCSc3c4ccccc4nc4ccc(Cl)cc34)c2c1`, the T/C (dose: 7.5 mg/kg/injection, schedule: Q01DX005 (ip), vehicle: Klucel (hydroxypropylcellulose) (HPC)) is reported as 103 % of control, the T/C (dose: 15.0 mg/kg/injection, schedule: Q01DX005 (ip), vehicle: Klucel (hydroxypropylcellulose) (HPC)) is reported as 97 % of control and the T/C (dose: 240.0 mg/kg/injection, schedule: Q01DX005 (ip), vehicle: Klucel (hydroxypropylcellulose) (HPC)) is reported as 89 % of control.
